Laboratory results as given in patent publication US20240148821A1, “PHARMACEUTICAL USE OF CYCLIC PEPTIDE COMPOUND” (CHUGAI SEIYAKU KABUSHIKI KAISHA, priority 2021, published 2024).
pIC50: −log10 of the molar value. Numbered stars: 1 amine (or outer) side, 2 acyl side, 3 side chain; on linkers, the order of the positions; unused ones are H or OH. Bridge positions count the residues as written; N and C are the ends. Square brackets hold non-standard residues; d marks the D form. Peptide text beside a SMILES is read from it. * marks the point of attachment. hPhe(3,5-F2-4-CF3) = N[C@@H](CCc1cc(F)c(C(F)(F)F)c(F)c1)C(=O)O; hPhe(3-Cl-4-CF3) = N[C@@H](CCc1ccc(C(F)(F)F)c(Cl)c1)C(=O)O; hPhe(3-F,4-CF3) = N[C@@H](CCc1ccc(C(F)(F)F)c(F)c1)C(=O)O; NEtPhe(4-CF3) = CCN[C@@H](Cc1ccc(C(F)(F)F)cc1)C(=O)O; NMePhe(4-CF3) = CN[C@@H](Cc1ccc(C(F)(F)F)cc1)C(=O)O; hPhe(4-CF3) = N[C@@H](CCc1ccc(C(F)(F)F)cc1)C(=O)O; NMePhe(4-Cl) = CN[C@@H](Cc1ccc(Cl)cc1)C(=O)O; NMePhe(4-Me) = CN[C@@H](Cc1ccc(C)cc1)C(=O)O; NMePhe(4-F) = CN[C@@H](Cc1ccc(F)cc1)C(=O)O; NMedβ3hAla = C[C@H](CC(=O)[*:2])N(C)[*:1]; NMeGly(cPent) = CN[C@H](C(=O)O)C1CCCC1; NMeCha = CN[C@@H](CC1CCCCC1)C(=O)O; Hyp = O=C(O)[C@@H]1C[C@@H](O)CN1; NMeF = CN[C@@H](Cc1ccccc1)C(=O)O; NMeI = CC[C@H](C)[C@H](NC)C(=O)O; d(β3hL) = CC(C)C[C@@H](N)CC(=O)O; NMeD = CN[C@@H](CC(=O)O)C(=O)O; NMeL = CN[C@@H](CC(C)C)C(=O)O; NMeV = CN[C@H](C(=O)O)C(C)C; d(β3hA) = C[C@@H](N)CC(=O)O; NMeS = CN[C@@H](CO)C(=O)O; NMeA = CN[C@@H](C)C(=O)O; NMeAib = CNC(C)(C)C(=O)O; Piperidide = C1CCN(*)CC1; dNMeA = CN[C@H](C)C(=O)O; Ac5c = NC1(C(=O)O)CCCC1; Aze = O=C(O)[C@@H]1CCN1; CH2CMe2OH = CC(C)(O)C*; Isopentyl = CC(C)CC*; NEtG = CCNCC(=O)O; Sar = CNCC(=O)O

These molecules were tested against protein-protein interaction between Kras and SOS1 (biotin-tagged human Kras loaded with GDP, His-tagged human SOS1) (Homo sapiens (Human), UniProt P01116, G12D) (assay: Protein-protein interaction inhibition between Kras and SOS1 (KrasG12D-SOS PPI) using AlphaScreen). Settings: AlphaScreen; biotin-tagged human Kras loaded with GDP, His-tagged human SOS1; read-out: KRAS G12D-SOS PPI IC50.
Format: biochemical

Row | SMILES | pIC50
1 | CC[C@H](C)[C@@H]1NC(=O)[C@H](CC(C)C)N(C)C(=O)C[C@@H](C(=O)N2CCCCC2)N(C)C(=O)[C@H](C2CCCC2)N(C)C(=O)C2(CCCC2)NC(=O)[C@@H]2CCCN2C(=O)[C@H](CCc2ccc(C(F)(F)F)c(Cl)c2)NC(=O)CN(C)C(=O)[C@H](Cc2ccc(F)cc2)N(C)C(=O)[C@@H]2CCN2C(=O)[C@H](C)N(C)C1=O [Compound 388] ([NMeL]I[NMeA][Aze][NMePhe(4-F)][Sar][hPhe(3-Cl-4-CF3)]P[Ac5c][NMeGly(cPent)][NMeD]-Piperidide; lactam N-11) | 9.30
2 | CC[C@H](C)[C@@H]1NC(=O)[C@H](CC(C)C)N(C)C(=O)C[C@@H](C)N(C)C(=O)[C@H]([C@@H](C)CC)N(C)C(=O)C2(CCCC2)NC(=O)[C@@H]2CCCN2C(=O)[C@H](CCc2ccc(C(F)(F)F)c(F)c2)NC(=O)CN(C)C(=O)[C@H](CC2CCCCC2)N(C)C(=O)[C@@H]2CCN2C(=O)[C@H](C)N(C)C1=O [Compound 859] (cyclo([Ac5c][NMeI][NMedβ3hAla][NMeL]I[NMeA][Aze][NMeCha][Sar][hPhe(3-F,4-CF3)]P)) | 7.19
3 | CCO[C@@H]1C[C@H]2C(=O)NC3(CCCC3)C(=O)N(C)[C@@H](CC(C)C)C(=O)N(C)[C@H](C)CC(=O)N(C)[C@@H](CC(C)C)C(=O)N[C@@H]([C@@H](C)CC)C(=O)N(C)CC(=O)N(C)CC(=O)N(C)[C@@H](CC3CCCCC3)C(=O)N(C)CC(=O)N[C@@H](CCc3ccc(C(F)(F)F)c(Cl)c3)C(=O)N2C1 [Compound 1851] (cyclo([Ac5c][NMeL][NMedβ3hAla][NMeL]I[Sar][Sar][NMeCha][Sar][hPhe(3-Cl-4-CF3)][Hyp](Et))) | 8.60
4 | CC[C@H](C)[C@@H]1NC(=O)[C@H](C)N(C)C(=O)C[C@@H](C)N(C)C(=O)[C@H](CC(C)C)NC(=O)C(C)(C)N(C)C(=O)[C@H](CC(C)C)NC(=O)[C@H](CCc2ccc(C(F)(F)F)c(Cl)c2)NC(=O)[C@@H](C)N(C)C(=O)[C@H](Cc2ccc(C(F)(F)F)cc2)N(C)C(=O)CN(C)C(=O)CN(C)C1=O [Compound 1385] (cyclo(I[Sar][Sar][NMePhe(4-CF3)][dNMeA][hPhe(3-Cl-4-CF3)]L[NMeAib]L[NMedβ3hAla][NMeA])) | 6.70
5 | CCO[C@@H]1C[C@H]2C(=O)NC3(CCCC3)C(=O)N(C)[C@@H](C3CCCC3)C(=O)N(C)[C@H](C)CC(=O)N(C)[C@@H](CC(C)C)C(=O)N[C@@H]([C@@H](C)CC)C(=O)N[C@@H](C)C(=O)N3CC[C@H]3C(=O)N(CC)[C@@H](Cc3ccc(C(F)(F)F)cc3)C(=O)N(C)CC(=O)N[C@@H](CCc3cc(F)c(C(F)(F)F)c(F)c3)C(=O)N2C1 [Compound 785] (cyclo(A[Aze][NEtPhe(4-CF3)][Sar][hPhe(3,5-F2-4-CF3)][Hyp](Et)[Ac5c][NMeGly(cPent)][NMedβ3hAla][NMeL]I)) | 8.46
6 | CC[C@H](C)[C@@H]1NC(=O)[C@H](C)N(C)C(=O)C[C@@H](C)NC(=O)[C@H](CC(C)C)N(C)C(=O)[C@H](Cc2ccccc2)N(C)C(=O)[C@H](CC(C)C)N(C)C(=O)[C@H](CCc2ccc(C(F)(F)F)cc2)NC(=O)CN(C)C(=O)[C@H](Cc2ccc(Cl)cc2)N(C)C(=O)CN(C)C(=O)CN(C)C1=O [Compound 546] (cyclo(I[Sar][Sar][NMePhe(4-Cl)][Sar][hPhe(4-CF3)][NMeL][NMeF][NMeL][d(β3hA)][NMeA])) | 6.89
7 | CC[C@H](C)[C@@H]1NC(=O)[C@H](CC(C)C)N(C)C(=O)C[C@@H](C)NC(=O)[C@H](CC(C)C)N(C)C(=O)C2(CCCC2)NC(=O)[C@H](COCC(C)(C)O)N(C)C(=O)[C@H](CCc2ccc(C(F)(F)F)c(Cl)c2)NC(=O)CN(C)C(=O)[C@H](COCCC(C)C)N(C)C(=O)CN(C)C(=O)CN(CC)C1=O [Compound 1464] (cyclo([Ac5c][NMeL][d(β3hA)][NMeL]I[NEtG][Sar][NMeS](Isopentyl)[Sar][hPhe(3-Cl-4-CF3)][NMeS](CH2CMe2OH))) | 6.72
8 | CC[C@H](C)[C@@H]1NC(=O)[C@H](CC(C)C)N(C)C(=O)C[C@@H](C)NC(=O)[C@H](C(C)C)N(C)C(=O)C2(CCCC2)NC(=O)[C@@H]2CCCN2C(=O)[C@H](CCc2ccc(C(F)(F)F)c(Cl)c2)NC(=O)CN(C)C(=O)[C@H](CC2CCCCC2)N(C)C(=O)[C@@H]2CCN2C(=O)[C@H](C)N(C)C1=O [Compound 488, (5S,8S,11S,15R,18S,23aS,29S,35S,37aS)-8-((S)-sec-butyl)-29-(3-chloro-4-(trifluoromethyl)phenethyl)-35-(cyclohexylmethyl)-11-isobutyl-18-isopropyl-5,6,12,15,19,33,36-heptamethyldocosahydro-2H,4H-spiro[azeto[2,1-u]pyrrolo[2,1-i][1,4,7,10,13,16,19,22,25,28,31]undecaazacyclotetratriacontine-21,1′-cyclopentan]-4,7,10,13,17,20,23,28,31,34,37(14H,22H)-undecaone] (cyclo([Ac5c][NMeV][d(β3hA)][NMeL]I[NMeA][Aze][NMeCha][Sar][hPhe(3-Cl-4-CF3)]P)) | 7.54
9 | CC[C@H](C)[C@@H]1NC(=O)[C@H](CC(C)C)N(C)C(=O)C[C@@H](CC(C)C)NC(=O)[C@H]([C@@H](C)CC)N(C)C(=O)C2(CCCC2)NC(=O)[C@@H]2CCCN2C(=O)[C@H](CCc2ccc(C(F)(F)F)c(Cl)c2)NC(=O)CN(C)C(=O)[C@H](Cc2ccc(C)cc2)N(C)C(=O)[C@@H]2CCN2C(=O)[C@H](C)N(C)C1=O [Compound 1995] (cyclo([Ac5c][NMeI][d(β3hL)][NMeL]I[NMeA][Aze][NMePhe(4-Me)][Sar][hPhe(3-Cl-4-CF3)]P)) | 6.47
